Tests used:
[1] = target: GDP-bound NRAS wild-type protein (Homo sapiens, UniProt P01111); assay: Binding to NRAS by surface plasmon resonance (SPR), Single Cycle Kinetics; conditions: KD ratio NRAS/KRAS, class symbols
[2] = target: GDP-bound HRAS wild-type protein (Homo sapiens, UniProt P01112); assay: Binding to HRAS by surface plasmon resonance (SPR), Single Cycle Kinetics; conditions: KD ratio HRAS/KRAS, class symbols
Sequence of GDP-bound HRAS wild-type protein (P01112 whole entry): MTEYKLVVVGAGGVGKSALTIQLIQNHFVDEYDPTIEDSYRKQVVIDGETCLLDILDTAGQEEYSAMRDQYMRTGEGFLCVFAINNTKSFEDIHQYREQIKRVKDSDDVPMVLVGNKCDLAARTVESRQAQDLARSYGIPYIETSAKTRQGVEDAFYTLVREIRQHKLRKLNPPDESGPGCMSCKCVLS

Sequence of GDP-bound NRAS wild-type protein (P01111 whole entry): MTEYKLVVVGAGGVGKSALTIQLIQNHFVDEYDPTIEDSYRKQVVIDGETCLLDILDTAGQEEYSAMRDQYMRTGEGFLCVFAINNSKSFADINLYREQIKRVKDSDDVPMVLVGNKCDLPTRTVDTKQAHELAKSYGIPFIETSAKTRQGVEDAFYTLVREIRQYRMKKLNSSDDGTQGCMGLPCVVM

Structure (SMILES) | NRAS/KRAS (ratio of KD value with respect to GDP-bound NRAS wild-type protein to KD value with respect to KRAS) [1] | HRAS/KRAS (ratio of KD value with respect to GDP-bound HRAS wild-type protein to KD value with respect to KRAS) [2]
CCO[C@@H]1C[C@H]2C(=O)NC3(CC(C)(C)C3)C(=O)N(C)[C@@H](C(CC)CC)C(=O)N(C)[C@H](C(=O)N3CCCC3)CC(=O)N(C)[C@H]3CCC/C=C/c4ccc(cc4)C[C@@H](C(=O)N(C)CC(=O)N[C@@H](CCc4ccc(Cl)c(Cl)c4)C(=O)N2C1)N1CC/C=C\C[C@@H](C1=O)N(C)C(=O)CN(C)C(=O)[C@H]([C@@H](C)CC)NC3=O [PP2581] | AA (a compound having 20 or more is denoted as AA) | A (a compound having 10 or more and less than 20 is denoted as A)
CCO[C@@H]1C[C@H]2C(=O)NC3(CC(C)(C)C3)C(=O)N(C)[C@@H](C3CCCC3)C(=O)N(C)[C@H](C(=O)N3CCCC3)CC(=O)N(C)[C@H]3CCC/C=C/c4ccc(cc4)C[C@@H](C(=O)N(C)CC(=O)N[C@@H](CCc4cc(F)c(C(F)(F)F)c(F)c4)C(=O)N2C1)N1CC/C=C\C[C@@H](C1=O)N(C)C(=O)CN(C1CC1)C(=O)[C@H]([C@@H](C)CC)NC3=O [PP2583] | A (a compound having 10 or more and less than 20 is denoted as A) | A (a compound having 10 or more and less than 20 is denoted as A)
CCO[C@@H]1C[C@H]2C(=O)NC3(CC(C)(C)C3)C(=O)N(C)[C@@H](C(CC)CC)C(=O)N(C)[C@H](C(=O)N(C)C)CC(=O)N(C)[C@H]3CC/C=C/c4ccc(cc4)C[C@@H](C(=O)N(C)CC(=O)N[C@@H](CCc4cc(F)c(C(F)(F)F)c(F)c4)C(=O)N2C1)N1CC/C=C\C[C@@H](C1=O)N(C)C(=O)CN(C)C(=O)[C@H]([C@@H](C)CC)NC3=O [PP2586] | A (a compound having 10 or more and less than 20 is denoted as A) | B (a compound having 3 or more and less than 10 is denoted as B)
CCO[C@@H]1C[C@H]2C(=O)NC3(CC(C)(C)C3)C(=O)N(C)[C@@H](C(CC)CC)C(=O)N(C)[C@H](C(=O)N(C)C)CC(=O)N(C)[C@H]3CC/C=C/c4ccc(cc4)C[C@@H](C(=O)N(C)CC(=O)N[C@@H](CCc4ccc(Cl)c(Cl)c4)C(=O)N2C1)N1CC/C=C\C[C@@H](C1=O)N(C)C(=O)CN(C)C(=O)[C@H]([C@@H](C)CC)NC3=O [PP2589] | AA (a compound having 20 or more is denoted as AA) | A (a compound having 10 or more and less than 20 is denoted as A)
CCO[C@@H]1C[C@H]2C(=O)NC3(CC(C)(C)C3)C(=O)N(C)[C@@H](C3CCCC3)C(=O)N(C)[C@H](C(=O)N(C)CC)CC(=O)N(C)[C@H]3CCCC/C=C/c4ccc(cc4)C[C@@H](C(=O)N(C)CC(=O)N[C@@H](CCc4ccc(Cl)c(Cl)c4)C(=O)N2C1)N1CC/C=C\C[C@@H](C1=O)N(C)C(=O)CN(C)C(=O)[C@H]([C@@H](C)CC)NC3=O [PP2592] | A (a compound having 10 or more and less than 20 is denoted as A) | A (a compound having 10 or more and less than 20 is denoted as A)
CCO[C@@H]1C[C@H]2C(=O)NC3(CC(C)(C)C3)C(=O)N(C)[C@@H](C3CCCC3)C(=O)N(C)[C@H](C(=O)N3CCCC3)CC(=O)N(C)[C@H]3CCCC/C=C/c4ccc(cc4)C[C@@H](C(=O)N(C)CC(=O)N[C@@H](CCc4ccc(Cl)c(Cl)c4)C(=O)N2C1)N1CC/C=C\C[C@@H](C1=O)N(C)C(=O)CN(C)C(=O)[C@H]([C@@H](C)CC)NC3=O [PP2593] | A (a compound having 10 or more and less than 20 is denoted as A) | A (a compound having 10 or more and less than 20 is denoted as A)
CCC(CC)[C@H]1C(=O)N(C)[C@H](C(=O)N(C)C)CC(=O)N(C)[C@H]2CCC/C=C/c3ccc(cc3)C[C@@H](C(=O)N(C)CC(=O)N[C@@H](CCc3cc(F)c(C(F)(F)F)c(F)c3)C(=O)N3C[C@H](OC(C)C)C[C@H]3C(=O)NC3(CC(C)(C)C3)C(=O)N1C)N1CC/C=C\C[C@@H](C1=O)N(C)C(=O)CN(C)C(=O)[C@H]([C@@H](C)CC)NC2=O [PP2594] | A (a compound having 10 or more and less than 20 is denoted as A) | A (a compound having 10 or more and less than 20 is denoted as A)
CC[C@H](C)[C@@H]1NC(=O)[C@@H]2CCC/C=C/c3ccc(cc3)C[C@@H](C(=O)N(C)CC(=O)N[C@@H](CCc3ccc(Cl)c(Cl)c3)C(=O)N3C[C@H](OC(C)C)C[C@H]3C(=O)NC3(CC(C)(C)C3)C(=O)N(C)[C@@H](C3CCCC3)C(=O)N(C)[C@H](C(=O)N(C)CC)CC(=O)N2C)N2CC/C=C\C[C@@H](C2=O)N(C)C(=O)CN(C)C1=O [PP2595] | A (a compound having 10 or more and less than 20 is denoted as A) | B (a compound having 3 or more and less than 10 is denoted as B)
CC[C@H](C)[C@@H]1NC(=O)[C@@H]2CCC/C=C/c3ccc(cc3)C[C@@H](C(=O)N(C)CC(=O)N[C@@H](CCc3ccc(Cl)c(Cl)c3)C(=O)N3C[C@H](OC(C)C)C[C@H]3C(=O)NC3(CC(C)(C)C3)C(=O)N(C)[C@@H](C3CCCC3)C(=O)N(C)[C@H](C(=O)N3CCCC3)CC(=O)N2C)N2CC/C=C\C[C@@H](C2=O)N(C)C(=O)CN(C)C1=O [PP2596] | A (a compound having 10 or more and less than 20 is denoted as A) | A (a compound having 10 or more and less than 20 is denoted as A)
CCO[C@@H]1C[C@H]2C(=O)NC3(CC(C)(C)C3)C(=O)N(C)[C@@H](C3CCCC3)C(=O)N(C)[C@H](C(=O)N3CCCCC3)CC(=O)N(C)[C@H]3CC/C=C/c4ccc(cc4)C[C@@H](C(=O)N(C)CC(=O)N[C@@H](CCc4ccc(Cl)c(Cl)c4)C(=O)N2C1)N1CC/C=C\C[C@@H](C1=O)N(C)C(=O)CN(C)C(=O)[C@H]([C@@H](C)CC)NC3=O [PP2597] | A (a compound having 10 or more and less than 20 is denoted as A) | A (a compound having 10 or more and less than 20 is denoted as A)
CCO[C@@H]1C[C@H]2C(=O)NC3(CC(C)(C)C3)C(=O)N(C)[C@@H](C3CCCC3)C(=O)N(C)[C@H](C(=O)N(C)CC)CC(=O)N(C)[C@H]3CC/C=C/c4ccc(cc4)C[C@@H](C(=O)N(C)CC(=O)N[C@@H](CCc4ccc(Cl)c(Cl)c4)C(=O)N2C1)N1CC/C=C\C[C@@H](C1=O)N(C)C(=O)CN(C1CC1)C(=O)[C@H]([C@@H](C)CC)NC3=O [PP2598] | A (a compound having 10 or more and less than 20 is denoted as A) | A (a compound having 10 or more and less than 20 is denoted as A)
CCC(CC)[C@H]1C(=O)N(C)[C@H](C(=O)N(C)C)CC(=O)N(C)[C@H]2CCC/C=C/c3ccc(cc3)C[C@@H](C(=O)N(C)CC(=O)N[C@@H](CCc3cc(F)c(C(F)(F)F)c(F)c3)C(=O)N3CCC[C@H]3C(=O)NC3(CC(C)(C)C3)C(=O)N1C)N1CC/C=C\C[C@@H](C1=O)N(C)C(=O)CN(C)C(=O)[C@H]([C@@H](C)CC)NC2=O [PP2600] | A (a compound having 10 or more and less than 20 is denoted as A) | A (a compound having 10 or more and less than 20 is denoted as A)
CC[C@H](C)[C@@H]1NC(=O)[C@@H]2CCC/C=C/c3ccc(cc3)C[C@@H](C(=O)N(C)CC(=O)N[C@@H](CCc3ccc(Cl)c(Cl)c3)C(=O)N3CCC[C@H]3C(=O)NC3(CC(C)(C)C3)C(=O)N(C)[C@@H](C3CCCC3)C(=O)N(C)[C@H](C(=O)N(C)CC)CC(=O)N2C)N2CC/C=C\C[C@@H](C2=O)N(C)C(=O)CN(C)C1=O [PP2601] | A (a compound having 10 or more and less than 20 is denoted as A) | A (a compound having 10 or more and less than 20 is denoted as A)
CC[C@H](C)[C@@H]1NC(=O)[C@@H]2CCC/C=C/c3ccc(cc3)C[C@@H](C(=O)N(C)CC(=O)N[C@@H](CCc3ccc(Cl)c(Cl)c3)C(=O)N3CCC[C@H]3C(=O)NC3(CC(C)(C)C3)C(=O)N(C)[C@@H](C3CCCC3)C(=O)N(C)[C@H](C(=O)N3CCCC3)CC(=O)N2C)N2CC/C=C\C[C@@H](C2=O)N(C)C(=O)CN(C)C1=O [PP2602] | A (a compound having 10 or more and less than 20 is denoted as A) | A (a compound having 10 or more and less than 20 is denoted as A)
CCC(CC)[C@H]1C(=O)N(C)[C@H](C(=O)N(C)C)CC(=O)N(C)[C@H]2CCC/C=C/c3ccc(cc3)C[C@@H](C(=O)N(C)CC(=O)N[C@@H](CCc3ccc(Cl)c(Cl)c3)C(=O)N3CCC[C@H]3C(=O)NC3(CC(C)(C)C3)C(=O)N1C)N1CC/C=C\C[C@@H](C1=O)N(C)C(=O)CN(C)C(=O)[C@H]([C@@H](C)CC)NC2=O [PP2603] | AA (a compound having 20 or more is denoted as AA) | A (a compound having 10 or more and less than 20 is denoted as A)
CCC(CC)[C@H]1C(=O)N(C)[C@H](C(=O)N2CCCC2)CC(=O)N(C)[C@H]2CCC/C=C/c3ccc(cc3)C[C@@H](C(=O)N(C)CC(=O)N[C@@H](CCc3ccc(Cl)c(Cl)c3)C(=O)N3CCC[C@H]3C(=O)NC3(CC(C)(C)C3)C(=O)N1C)N1CC/C=C\C[C@@H](C1=O)N(C)C(=O)CN(C)C(=O)[C@H]([C@@H](C)CC)NC2=O [PP2604] | AA (a compound having 20 or more is denoted as AA) | A (a compound having 10 or more and less than 20 is denoted as A)

Source: patent publication US20250230193A1, “CYCLIC COMPOUND HAVING SELECTIVE KRAS INHIBITORY EFFECT ON HRAS AND NRAS” (CHUGAI SEIYAKU KABUSHIKI KAISHA, priority 2022, published 2025)
